For 23 compounds, IC50 results are on record in ChEMBL document CHEMBL3132846 (Medchemcomm, 2014).

What all share (format): functional, cell-based
Test [1] is described as follows: Cytotoxicity against human BGC823 cells after 48 hrs by MTT assay. Particulars: BGC-823, 48 h.
Test [2] can be described thus: Cytotoxicity against human NCI-460 cells after 48 hrs by MTT assay. To be noted: NCI-460, 48 h. For orientation: Tetrazolium dyes change colour on reduction, which living cells bring about.
Test [3] can be described thus: Cytotoxicity against human Bel7402 cells after 48 hrs by MTT assay. To be noted: Bel-7402, 48 h.
The test system of test [4] is MCF7. Briefly: Cytotoxicity against human MCF7 cells after 48 hrs by MTT assay. Particulars: MCF7, 48 h.
Test [5] relates to HL-60. Description: Cytotoxicity against human HL60 cells after 48 hrs by MTT assay. To be noted: HL-60, 48 h.
Test [6] relates to SiHa. Briefly: Cytotoxicity against human SiHa cells after 48 hrs by MTT assay.
For test [7], the system named is HeLa. Description: Cytotoxicity against human HeLa cells after 48 hrs by MTT assay.
The test system of test [8] is BeWo. Description: Cytotoxicity against human Bewo cells after 48 hrs by MTT assay.
In test [9] the test system is A549. Description: Cytotoxicity against human A549 cells after 48 hrs by MTT assay. To be noted: A549, 48 h.
Test [10] has as its system Ishikawa. Briefly: Cytotoxicity against human Ishikawa cells after 48 hrs by MTT assay.
Test [11] in a line: Cytotoxicity against human SKBR3 cells after 48 hrs by MTT assay. Particulars: SK-BR-3, 48 h.
The nature of test [12]: Cytotoxicity against human JeKo1 cells after 48 hrs by MTT assay. To be noted: JeKo-1, 48 h.

Each structure is given as a SMILES string. pIC50: −log10 of the molar value.

In general, pIC50 refers to −log10 of the IC50, conventionally taken in molar units. Higher therefore signals a small IC50. For `COc1cccc(/C=N/NC(=O)Cc2cccc3c(=O)c4ccc(C)c(C)c4oc23)c1`, the pIC50 in [1], in test [2], in test [3], in test [4], in [5] and in [6] was < 4.00 each time. In addition, the pIC50 is < 4.00 in test [7], 4.07 in test [8], 4.29 in test [9] and < 4.00 in test [10].
For the compound `COc1c(O)ccc(/C=N/NC(=O)Cc2cccc3c(=O)c4ccc(C)c(C)c4oc23)c1[N+](=O)[O-]`, in test [9], the pIC50 is < 4.00.
Consider `Cc1ccc2c(=O)c3cccc(CC(=O)N/N=C/c4ccc(O)cc4)c3oc2c1C`, for which the pIC50 in test [4] was < 4.00; in [5] it was < 4.00; in test [6], < 4.00; in test [7] it was < 4.00; in test [8], 4.13; in test [9], 4.44. Moreover, the pIC50 in test [10] was < 4.00.
On to `COc1ccc(/C=N/NC(=O)Cc2cccc3c(=O)c4ccc(C)c(C)c4oc23)cc1`, for which the pIC50 in test [4], in test [5], in test [6], in [7], in [8] and in test [9] was < 4.00 throughout. In test [10], the pIC50 was 4.04.
For the compound `COc1ccc(/C=N/NC(=O)Cc2cccc3c(=O)c4ccc(C)c(C)c4oc23)cc1O`, the pIC50 in [1], in test [2], in test [3], in test [4], in test [5] and in [6] was < 4.00 each time. In addition, the pIC50 in test [7] is < 4.00; in test [8], < 4.00; in test [9] it was 4.26; in test [10], < 4.00.
With `CCOC(=O)c1ccc(NC(=O)Cc2cccc3c(=O)c4ccc(C)c(C)c4oc23)cc1`, the pIC50 in test [1] was < 4.00; in test [2], < 4.00; in test [3] it was < 4.00; in test [4], < 4.00; in test [5] it was 4.04; in test [6], < 4.00. In addition, the pIC50 in [7] was < 4.00; in test [8] it was 4.34; in [9], 4.40; in test [10], < 4.00.
Take `Cc1ccc2c(=O)c3cccc(CC(=O)N/N=C/c4ccc(O)c(O)c4)c3oc2c1C`: in [9], the pIC50 was < 4.00.
A word on the IC50: it is the concentration that inhibits the measured activity by half. In the case of `CCCCCC(=O)NNC(=O)Cc1cccc2c(=O)c3ccc(C)c(C)c3oc12`, the IC50 in test [11] and in [12] was > 10 µg/mL in each case.
On to `CC(C)=CCC(=O)NNC(=O)Cc1cccc2c(=O)c3ccc(C)c(C)c3oc12`, for which the half-maximal inhibitory concentration (IC50) in test [11] and in test [12] was > 10 µg/mL each time.
With `CCCCNC(=O)Cc1cccc2c(=O)c3ccc(C)c(C)c3oc12`, the pIC50 in test [4] is 4.36; in test [5], 4.35; in test [6], < 4.00; in [7] it was < 4.00; in test [8], < 4.00; in [9], 4.33. For the same compound, the pIC50 in [10] was < 4.00.
As to `Cc1ccc2c(=O)c3cccc(CC(=O)Nc4ccc([N+](=O)[O-])c(C(F)(F)F)c4)c3oc2c1C`, the pIC50 in [4] was < 4.00; in [5] it was 4.03; in test [6], 4.20; in [7] it was < 4.00; in [8], < 4.00; in test [9], < 4.00. In addition, in test [10], the pIC50 is < 4.00.
Regarding `COc1cc(/C=N/NC(=O)Cc2cccc3c(=O)c4ccc(C)c(C)c4oc23)cc(OC)c1OC`, the pIC50 is < 4.00 in test [4]; < 4.00 in test [5]; < 4.00 in [6]; < 4.00 in test [7]; < 4.00 in test [8]; 4.81 in [9]. The pIC50 in [10] is < 4.00.
In the case of `C/C=C/CC(=O)NNC(=O)Cc1cccc2c(=O)c3ccc(C)c(C)c3oc12`, the IC50 in [11] and in test [12] was > 10 µg/mL throughout.
As for `CCOC(=O)CNC(=O)Cc1cccc2c(=O)c3ccc(C)c(C)c3oc12`, the pIC50 in [4] was 4.33; in [5], < 4.00; in [6] it was < 4.00; in test [7], < 4.00; in test [8], < 4.00; in test [9], 4.37. For the same compound, the pIC50 in test [10] was 4.21.
Turning to `CCC/C=C/C(=O)NNC(=O)Cc1cccc2c(=O)c3ccc(C)c(C)c3oc12`, the IC50 in test [11] and in test [12] was > 10 µg/mL each time.
As for `Cc1ccc2c(=O)c3cccc(CC(=O)Nc4ccc(F)c(Cl)c4)c3oc2c1C`, the pIC50 was < 4.00 in test [4]; 4.12 in [5]; 4.49 in test [6]; 4.03 in test [7]; < 4.00 in test [8]; 4.59 in test [9]. For the same compound, in [10], the pIC50 was < 4.00.
Take `Cc1ccc2c(=O)c3cccc(CC(=O)N/N=C/c4ccc5c(c4)OCO5)c3oc2c1C`: the pIC50 in test [1], in test [2], in test [3], in test [4], in test [5] and in test [6] was < 4.00 throughout. Also, the pIC50 was < 4.00 in test [7], < 4.00 in test [8], 4.06 in test [9] and < 4.00 in test [10].
Take `COc1cc(/C=N/NC(=O)Cc2cccc3c(=O)c4ccc(C)c(C)c4oc23)ccc1O`: the pIC50 in test [9] is < 4.00.
On to `C#CCOC(=O)Cc1cccc2c(=O)c3ccc(C)c(C)c3oc12`, for which the IC50 in test [11] and in test [12] was > 10 µg/mL in each case. The pIC50 in test [1] was 4.09; in test [2], < 4.00; in [3], < 4.00; in test [4], < 4.00; in [5], < 4.00; in test [6] it was < 4.00. For the same compound, the pIC50 in [7], in test [8], in [9] and in test [10] was < 4.00 each time.
As for `COc1ccc(/C=C\c2cc(OC)c(OC)c(OC)c2)cc1O` [COMBRETASTATIN A4], the pIC50 was 4.59 in test [4]; > 7.52 in test [5]; < 4.00 in test [6]; 4.83 in test [7]; 4.89 in test [8]; 4.70 in test [10].
For `Cc1ccc2c(=O)c3cccc(CC(=O)N/N=C/c4ccccc4O)c3oc2c1C`, the IC50 in test [11] and in test [12] was > 10 µg/mL throughout. In addition, the negative-log IC50 (pIC50) in [1] was < 4.00; in [2] it was < 4.00; in test [3] it was < 4.00; in [4] it was < 4.00; in [5], 4.28; in test [6], < 4.00. The pIC50 in test [7] is < 4.00; in test [8], 4.17; in [9], 4.67; in test [10], < 4.00.
With `CCOC(=O)CCNC(=O)Cc1cccc2c(=O)c3ccc(C)c(C)c3oc12`, the pIC50 is 4.12 in test [1]; < 4.00 in test [2]; < 4.00 in test [3]; 4.39 in [4]; 4.10 in test [5]; 4.01 in [6]. Further, the negative logarithm of the IC50 (pIC50) in [7] is < 4.00; in test [8], 4.58; in test [9], 4.46; in [10], < 4.00.
On to `Cc1ccc2c(=O)c3cccc(CC(=O)Nc4ccc(Cl)cn4)c3oc2c1C`, for which the pIC50 is 4.02 in test [4]; 4.09 in test [5]; < 4.00 in test [6]; < 4.00 in test [7]; < 4.00 in [8]; < 4.00 in [9]. In addition, the pIC50 in test [10] was < 4.00.
